pIC50: −log10 of the molar value. Structures can show the parent of a compound that is named as a salt.
Target: T1, DPP-IV (Homo sapiens, UniProt P27487)
T1 construct: an extract of human colon carcinoma cell line Caco-2 is used as the DPP IV source; endogenous in cells; host or cells: Caco-2 (human colon carcinoma), differentiated to induce DPP-IV expression; Nonidet-P40 solubilised extract
T1 sequence (P27487 whole entry): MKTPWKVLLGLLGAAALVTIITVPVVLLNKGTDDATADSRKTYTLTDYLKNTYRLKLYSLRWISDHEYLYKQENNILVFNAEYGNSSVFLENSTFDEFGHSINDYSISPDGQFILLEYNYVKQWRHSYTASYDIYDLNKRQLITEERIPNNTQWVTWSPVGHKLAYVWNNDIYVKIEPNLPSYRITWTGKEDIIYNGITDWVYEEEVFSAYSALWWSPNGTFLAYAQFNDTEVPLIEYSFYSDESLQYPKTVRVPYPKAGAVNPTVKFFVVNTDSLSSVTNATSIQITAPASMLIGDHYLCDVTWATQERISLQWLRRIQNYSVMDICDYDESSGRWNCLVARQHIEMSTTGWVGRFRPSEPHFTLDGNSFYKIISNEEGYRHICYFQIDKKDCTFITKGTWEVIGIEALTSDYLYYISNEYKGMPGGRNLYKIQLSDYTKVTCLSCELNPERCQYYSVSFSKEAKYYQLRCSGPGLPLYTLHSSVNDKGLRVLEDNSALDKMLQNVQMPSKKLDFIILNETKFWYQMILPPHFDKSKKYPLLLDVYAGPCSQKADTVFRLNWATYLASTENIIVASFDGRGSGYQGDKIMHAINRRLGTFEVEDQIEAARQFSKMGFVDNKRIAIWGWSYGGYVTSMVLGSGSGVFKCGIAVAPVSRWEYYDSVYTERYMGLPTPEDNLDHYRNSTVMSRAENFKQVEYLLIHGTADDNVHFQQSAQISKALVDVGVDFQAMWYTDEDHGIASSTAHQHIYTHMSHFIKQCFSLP
Assay: DPP-IV assay with Caco-2 cell extract as DPP IV source, AFC substrate, fluorescence
Type: biochemical
Conditions: extract of human colon carcinoma cell line Caco-2; substrate 100 μM; 60 minutes at ambient temperature; read-out: DPP IV inhibition IC50
Protocol: The differentiation of the cells in order to induce the DPP-IV expression was carried out as described by Reiher et al. in an article entitled “Increased expression of intestinal cell line Caco-2”, which appeared in Proc. Natl. Acad. Sci. Vol. 90, pages 5757-5761 (1993). The cell extract was obtained from cells solubilised in a buffer (10 mM Tris HCl, 0.15 M NaCl, 0.04 t.i.u. aprotinin, 0.5% Nonidet-P40, pH 8.0) by centrifuging at 35,000 g for 30 minutes at 4° C. (to remove cell debris).
The DPP-IV assay was carried out as follows:
50 μl substrate solution (AFC; AFC is amido-4-trifluoromethylcoumarin), final concentration 100 μM, were placed in black microtitre plates. 20 μl of assay buffer (final concentrations 50 mM Tris HCl pH 7.8, 50 mM NaCl, 1% DMSO) was pipetted in. The reaction was started by adding 30 μl of solubilised Caco-2 protein (final concentration 0.14 μg of protein per well). The test substances to be investigated were typically added prediluted in 20 μl, and the volume of assay buffer was then reduced accordingly. The reaction was carried out at ambient temperature, incubating for 60 minutes. Then the fluorescence was measured in a Victor 1420 Multilabel Counter, the excitation wavelength being 405 nm and the emission wavelength being 535 nm. Blank readings (corresponding to 0% activity) were obtained in mixtures without any Caco-2 protein (volume replaced by assay buffer), control values (corresponding to 100% activity) were obtained in mixtures with no substance added.
For `Cn1c(NCc2ccc(F)cc2)nc2nc(N3CCCC(N)C3)n(Cc3ccccc3)c2c1=O` (stereo not shown) [1(1), 8-(3-amino-piperidin-1-yl)-7-benzyl-2-(4-fluoro-benzylamino)-1-methyl-1,7-dihydro-purin-6-one trifluoroacetate], the pIC50 was 7.62. Work on `Cn1c(NCCc2ccccc2)nc2nc(N3CCCC(N)C3)n(Cc3ccccc3)c2c1=O` (stereo not shown) [1(2), 8-(3-amino-piperidin-1-yl)-7-benzyl-1-methyl-2-[(2-phenylethyl)amino]-1,7-dihydro-purin-6-one trifluoroacetate] yielded a pIC50 of 7.38. In the case of `CC(C)Nc1nc2nc(N3CCCC(N)C3)n(Cc3ccccc3)c2c(=O)n1C` (stereo not shown) [1(3), 8-(3-amino-piperidin-1-yl)-7-benzyl-2-isopropylamino-1-methyl-1,7-dihydro-purin-6-one trifluoroacetate], the pIC50 was 6.96. With `CNc1nc2nc(N3CCCC(N)C3)n(Cc3ccccc3)c2c(=O)n1C` (stereo not shown) [1(4), 8-(3-amino-piperidin-1-yl)-7-benzyl-1-methyl-2-methylamino-1,7-dihydro-purin-6-one trifluoroacetate] the pIC50 was 7.24. Work on `Cn1c(NC2CCCCC2)nc2nc(N3CCCC(N)C3)n(Cc3ccccc3)c2c1=O` (stereo not shown) [1(5), 8-(3-amino-piperidin-1-yl)-7-benzyl-2-cyclohexylamino-1-methyl-1,7-dihydro-purin-6-one trifluoroacetate] yielded a pIC50 of 6.87. In the case of `Cn1c(NCC2CCCCC2)nc2nc(N3CCCC(N)C3)n(Cc3ccccc3)c2c1=O` (stereo not shown) [1(6), 8-(3-amino-piperidin-1-yl)-7-benzyl-2-cyclohexylmethylamino-1-methyl-1,7-dihydro-purin-6-one trifluoroacetate], the pIC50 was 7.32. For `Cn1c(N2CCCCC2)nc2nc(N3CCCC(N)C3)n(Cc3ccccc3)c2c1=O` (stereo not shown) [1(7), 8-(3-amino-piperidin-1-yl)-7-benzyl-1-methyl-2-(piperidin-1-yl)-1,7-dihydro-purin-6-one hydrochloride], the pIC50 was 6.36. `CN(C)c1nc2nc(N3CCCC(N)C3)n(Cc3ccccc3)c2c(=O)n1C` (stereo not shown) [1(8), 8-(3-amino-piperidin-1-yl)-7-benzyl-2-dimethylamino-1-methyl-1,7-dihydro-purin-6-one trifluoroacetate] gave a pIC50 of 6.67. With `Cn1c(N)nc2nc(N3CCCC(N)C3)n(Cc3ccccc3)c2c1=O` (stereo not shown) [1(9), 2-amino-8-(3-amino-piperidin-1-yl)-7-benzyl-1-methyl-1,7-dihydro-purin-6-one trifluoroacetate] the pIC50 was 7.21. Work on `Cc1nc2nc(N3CCCC(N)C3)n(Cc3ccccc3)c2c(=O)n1C` (stereo not shown) [1(11), 8-(3-amino-piperidin-1-yl)-7-benzyl-1-methyl-2-methyl-1,7-dihydro-purin-6-one trifluoroacetate] yielded a pIC50 of 7.27. With `CC(C)=CCn1c(N2CCCC(N)C2)nc2nc(CCc3ccccc3)n(C)c(=O)c21` (stereo not shown) [1(12), 8-(3-amino-piperidin-1-yl)-1-methyl-7-(3-methyl-but-2-en-1-yl)-2-(2-phenylethyl)-1,7-dihydro-purin-6-one trifluoroacetate] the pIC50 was 7.74. For `CSc1nc2nc(N3CCCC(N)C3)n(Cc3ccccc3)c2c(=O)[nH]1` (stereo not shown) [1(14), 8-(3-amino-piperidin-1-yl)-7-benzyl-2-methylsulphanyl-1,7-dihydro-purin-6-one hydrochloride], the pIC50 was 6.80. `NC1CCCN(c2nc3nc(SCc4ccccc4)[nH]c(=O)c3n2Cc2ccccc2)C1` (stereo not shown) [1(15), 8-(3-amino-piperidin-1-yl)-7-benzyl-2-benzylsulphanyl-1,7-dihydro-purin-6-one trifluoroacetate] gave a pIC50 of 7.24. In the case of `NC1CCCN(c2nc3ncn(CC(=O)c4ccccc4)c(=O)c3n2Cc2ccccc2)C1` (stereo not shown) [1(22), 8-(3-amino-piperidin-1-yl)-7-benzyl-1-(2-oxo-2-phenyl-ethyl)-1,7-dihydro-purin-6-one trifluoroacetate], the pIC50 was 7.32. `Cn1c(CC(=O)c2ccccc2)nc2nc(N3CCCC(N)C3)n(Cc3ccccc3)c2c1=O` (stereo not shown) [1(23), 8-(3-amino-piperidin-1-yl)-7-benzyl-1-methyl-2-(2-oxo-2-phenyl-ethyl)-1,7-dihydro-purin-6-one] showed a pIC50 of 6.80. `Cn1c(C#N)nc2nc(N3CCCC(N)C3)n(Cc3ccccc3)c2c1=O` (stereo not shown) [1(24), 8-(3-amino-piperidin-1-yl)-7-benzyl-2-cyano-1-methyl-1,7-dihydro-purin-6-one trifluoroacetate] gave a pIC50 of 6.95. With `CC(C)=CCn1c(N2CCCC(N)C2)nc2nc(C)n(Cc3ccccc3)c(=O)c21` (stereo not shown) [1(25), 8-(3-amino-piperidin-1-yl)-1-benzyl-2-methyl-7-(3-methyl-but-2-en-1-yl)-1,7-dihydro-purin-6-one] the pIC50 was 6.56. Work on `CC(C)=CCn1c(N2CCCC(N)C2)nc2nc(C)n(Cc3cccc4ccccc34)c(=O)c21` (stereo not shown) [1(26), 8-(3-amino-piperidin-1-yl)-2-methyl-7-(3-methyl-but-2-en-1-yl)-1-[(naphthalen-1-yl)methyl]-1,7-dihydro-purin-6-one] yielded a pIC50 of 7.40. For `CC(C)=CCn1c(N2CCCC(N)C2)nc2ncn(Cc3cccc4ccccc34)c(=O)c21` (stereo not shown) [1(27), 8-(3-amino-piperidin-1-yl)-7-(3-methyl-but-2-en-1-yl)-1-[(naphthalen-1-yl)methyl]-1,7-dihydro-purin-6-one], the pIC50 was 7.72. In the case of `COc1ccc(Cn2cnc3nc(N4CCCC(N)C4)n(CC=C(C)C)c3c2=O)c2ccccc12` (stereo not shown) [1(28), 8-(3-amino-piperidin-1-yl)-7-(3-methyl-but-2-en-1-yl)-1-[(4-methoxy-naphthalen-1-yl)methyl]-1,7-dihydro-purin-6-one], the pIC50 was 7.24. Work on `Cn1c(NCc2ccccc2)nc2nc(N3CCCC(N)C3)n(Cc3ccccc3)c2c1=O` (stereo not shown) [Example 1, 8-(3-amino-piperidin-1-yl)-7-benzyl-2-benzylamino-1-methyl-1,7-dihydro-purin-6-one] yielded a pIC50 of 7.96.

Test system: not listed separately
Assay: Tolerability after oral administration to rats
Type: in vivo
Conditions: 30 mg/kg
For `Cn1c(NCc2ccccc2)nc2nc(N3CCCC(N)C3)n(Cc3ccccc3)c2c1=O` (stereo not shown) [Example 1, 8-(3-amino-piperidin-1-yl)-7-benzyl-2-benzylamino-1-methyl-1,7-dihydro-purin-6-one], the “toxic side effects or changes in the animals' behaviour” value was “no toxic side effects or changes in the animals' behaviour could be detected”.

— patent publication US7569574B2, “Purine derivatives, the preparation thereof and their use as pharmaceutical compositions” (Boehringer Ingelheim Pharma GmbH & Co. KG, priority 2002, dated 2009)
